Experimental data published in patent US20230219965A1 (KSQ Therapeutics, Inc., priority 2020, published 2023).
Read-outs that look alike come from different tables or passages of the source.

Experiments:
[1] = Liver microsomal metabolic stability, human liver microsomes (HLM); conditions: human, liver microsomes
[2] = molecular target: USP1/UAF1 enzyme (Homo sapiens, UniProt O94782); experiment: USP1/UAF1 deubiquitination assay (ubiquitin-rhodamine 110 substrate); assay type: biochemical; conditions: read-out: USP1 IC50 (Ub-Rho)
How it was run: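 0.05 nM USP1/UAF1 was preincubated 10 min with compounds (dose response from 10 μM) in 50 mM Tris-HCl pH 7.8, 0.5 mM EDTA, 0.01% BSA, 1 mM DTT, 0.01% Tween-20. 150 nM ubiquitin-rhodamine 110 started the reaction, read kinetically 30 min at Ex480/Em540; IC50 by four-parameter fit versus no-enzyme and DMSO controls.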

[3] = tested on: Ub-PCNA levels in the nucleus of ES2 cells (USP1 activity); experiment: ES2 Ub-PCNA immunofluorescence (IF) assay; assay type: cell-based; conditions: Homo sapiens, ES-2; ES2 cells, 3 hours, Ub-PCNA immunofluorescence; read-out: USP1 IC50 (Ub-PCNA)
How it was run: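 Cells plated overnight, then compound-treated for 3 h at 37° C (0.3% DMSO final), methanol-fixed and stained with anti-Ub-PCNA plus DAPI. Per-nucleus Ub-PCNA intensity imaged; cells above the 95% cutoff of untreated wells counted as positive, and percent positive cells used to derive AC50.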

[4] = Liver microsomal metabolic stability, rat liver microsomes (RLM); conditions: rat, liver microsomes, t1/2 (min) in RLM, 1 μM compound, 1 mg/mL microsomes, NADPH
Method: Samples were prepared by adding 222.5 μL of a master solution (100 mM phosphate buffer and 1 mg/mL liver microsomes (HLM or RLM)) and 25 μL of a 10 mM NADPH solution to incubation plates, which were then warmed for 10 min. Each compound was separately dissolved in DMSO to prepare 10 mM stock solutions, which were then diluted to 100 μM with acetonitrile. A reaction was started by adding 2.5 μL of the 100 μM solution of each compound to separate incubation plates such that the final concentration of for each compound in each plate was 1 μM.
25 μL aliquots of each sample were taken at 0.5, 5, 10, 15, 20 and 30 minutes, and the reaction was stopped by adding 5 volumes of cold acetonitrile with IS (100 nM alprazolam, 200 nM caffeine and 100 nM tolbutamide). The samples were then centrifuged at 3,220 G for 30 minutes, and 100 μL of the supernatant fluid was mixed with 100 μL of ultra-pure H2O.
The samples were then analyzed by LC-MS/MS. Peak areas were determined from extracted ion chromatograms. Slope values (k) were determined by linear regression of the natural logarithm of the remaining percentage of the compound vs. incubation time curve. The in vitro half-life (in vitro t1/2) was determined from the slope value using the following equation:

[5] = ADME solubility determination in PBS at pH 2.0 and pH 7.4; assay type: physicochemical; conditions: phosphate buffered saline, 25 °C, thermodynamic from solid
How it was run: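 Dried 10 mM DMSO stock residues taken up in PBS pH 7.4 or pH 2.0, shaken 24 h at 25° C. After centrifugation, supernatant quantified by LC-MS/MS against a standard of known concentration, with a dilution factor applied.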

[6] = pH 2, aqueous buffer, PBS pH 2.0, 25° C., read-out: Solubility at pH 2.0
[7] = pH 7.4, aqueous buffer, PBS pH 7.4, 25° C., read-out: Solubility at pH 7.4

Sequence of USP1/UAF1 enzyme (O94782 whole entry): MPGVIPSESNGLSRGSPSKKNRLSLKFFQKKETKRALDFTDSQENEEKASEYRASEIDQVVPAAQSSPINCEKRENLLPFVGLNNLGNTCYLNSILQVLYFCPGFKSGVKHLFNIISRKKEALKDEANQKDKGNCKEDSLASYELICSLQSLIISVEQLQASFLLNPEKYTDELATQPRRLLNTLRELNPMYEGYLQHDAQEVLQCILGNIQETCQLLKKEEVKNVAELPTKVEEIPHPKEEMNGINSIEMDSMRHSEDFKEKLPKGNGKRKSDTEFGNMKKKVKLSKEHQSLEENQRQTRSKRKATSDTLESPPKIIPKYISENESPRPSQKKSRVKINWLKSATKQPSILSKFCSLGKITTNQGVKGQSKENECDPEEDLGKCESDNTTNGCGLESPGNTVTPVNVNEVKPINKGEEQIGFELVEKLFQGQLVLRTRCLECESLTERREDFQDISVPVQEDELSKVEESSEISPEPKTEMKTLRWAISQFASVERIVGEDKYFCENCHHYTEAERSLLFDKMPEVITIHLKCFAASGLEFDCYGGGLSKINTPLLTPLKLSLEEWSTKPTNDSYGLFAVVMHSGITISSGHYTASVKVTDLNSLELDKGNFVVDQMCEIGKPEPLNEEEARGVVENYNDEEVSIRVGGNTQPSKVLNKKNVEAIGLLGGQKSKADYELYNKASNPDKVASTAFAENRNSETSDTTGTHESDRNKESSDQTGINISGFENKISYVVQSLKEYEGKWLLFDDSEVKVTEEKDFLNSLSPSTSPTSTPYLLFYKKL
Sequence of USP1/UAF1 enzyme (Q8TAF3 whole entry partner): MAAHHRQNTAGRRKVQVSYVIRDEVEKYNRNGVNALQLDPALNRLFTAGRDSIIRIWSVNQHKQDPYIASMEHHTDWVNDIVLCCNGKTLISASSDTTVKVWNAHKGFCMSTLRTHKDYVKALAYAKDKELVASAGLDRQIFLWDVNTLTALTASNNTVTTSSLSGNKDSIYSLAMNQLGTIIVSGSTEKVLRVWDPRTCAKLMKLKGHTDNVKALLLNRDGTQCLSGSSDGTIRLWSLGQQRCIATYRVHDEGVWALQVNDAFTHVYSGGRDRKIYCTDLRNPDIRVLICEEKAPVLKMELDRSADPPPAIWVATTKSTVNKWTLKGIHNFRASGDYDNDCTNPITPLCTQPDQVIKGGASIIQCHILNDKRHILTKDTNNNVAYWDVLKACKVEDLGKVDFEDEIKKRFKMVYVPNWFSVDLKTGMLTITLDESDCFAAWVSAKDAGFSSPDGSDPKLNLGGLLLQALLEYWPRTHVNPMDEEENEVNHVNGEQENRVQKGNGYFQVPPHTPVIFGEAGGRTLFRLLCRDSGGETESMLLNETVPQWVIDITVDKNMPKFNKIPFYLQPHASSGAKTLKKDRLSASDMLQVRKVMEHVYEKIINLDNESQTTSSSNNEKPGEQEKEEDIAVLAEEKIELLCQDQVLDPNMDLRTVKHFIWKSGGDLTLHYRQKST

Row | half-life at 1 μM [1] [min] | IC50 [2] [nM] | IC50 [3] [nM] | half-life at 1 μM [4] [min] | solubility at 24 h [5, 6] [µM] | solubility at 24 h [5, 7] [µM] | Structure (SMILES)
1 | > 25 | < 100 | < 100 | > 25 | ≥ 10 | < 10 | CCn1cc(C(F)(F)F)nc1-c1ccc([C@@H](C)n2c(=O)ccn3nc(-c4c(OC)ncnc4C4CC4)cc23)cc1 [Example 335, (R)-2-(4-cyclopropyl-6-methoxypyrimidin-5-yl)-4-(1-(4-(1-ethyl-4-(trifluoromethyl)-1H-imidazol-2-yl)phenyl)ethyl)pyrazolo[1,5-a]pyrimidin-5(4H)-one]
2 | < 25 | < 100 | < 100 | > 25 | ≥ 10 | < 10 | CCn1cc(C(F)(F)F)nc1-c1ccc([C@H](C)n2c(=O)ccn3nc(-c4c(OC)ncnc4C4CC4)cc23)cc1 [Example 336, (S)-2-(4-cyclopropyl-6-methoxypyrimidin-5-yl)-4-(1-(4-(1-ethyl-4-(trifluoromethyl)-1H-imidazol-2-yl)phenyl)ethyl)pyrazolo[1,5-a]pyrimidin-5(4H)-one]
3 | > 25 | < 100 | < 100 | > 25 | ≥ 10 | < 10 | CCn1cc(C(F)(F)F)nc1-c1ccc(Cn2c(=O)ccn3nc(-c4c(OC)ncnc4C4CC4)nc23)cc1 [Example 337, 2-(4-cyclopropyl-6-methoxypyrimidin-5-yl)-4-(4-(1-ethyl-4-(trifluoromethyl)-1H-imidazol-2-yl)benzyl)-[1,2,4]triazolo[1,5-α]pyrimidin-5(4H)-one]
4 | > 25 | < 100 | < 100 | < 25 | ≥ 10 | < 10 | CCn1cc(C(F)(F)F)nc1-c1ccc([C@@H](C)n2c(=O)ccn3nc(-c4c(OC)ncnc4C4CC4)nc23)cc1 [Example 338, (R)-2-(4-cyclopropyl-6-methoxypyrimidin-5-yl)-4-(1-(4-(1-ethyl-4-(trifluoromethyl)-1H-imidazol-2-yl)phenyl)ethyl)-[1,2,4]triazolo[1,5-a]pyrimidin-5(4H)-one]
5 | < 25 | < 100 | < 100 | > 25 | ≥ 10 | < 10 | CCn1cc(C(F)(F)F)nc1-c1ccc([C@H](C)n2c(=O)ccn3nc(-c4c(OC)ncnc4C4CC4)nc23)cc1 [Example 339, (S)-2-(4-cyclopropyl-6-methoxypyrimidin-5-yl)-4-(1-(4-(1-ethyl-4-(trifluoromethyl)-1H-imidazol-2-yl)phenyl)ethyl)-[1,2,4]triazolo[1,5-a]pyrimidin-5(4H)-one]
6 | > 25 | < 100 | < 100 | > 25 | ≥ 10 | ≥ 10 | CCn1cc(C(F)(F)F)nc1-c1ccc(C(C)n2c(=O)ccn3nc(-c4c(OC)ncnc4C4CC4)nc23)cc1 (stereo not drawn) [Example 340, 2-(4-cyclopropyl-6-methoxypyrimidin-5-yl)-4-(1-(4-(1-ethyl-4-(trifluoromethyl)-1H-imidazol-2-yl)phenyl)ethyl)-[1,2,4]triazolo[1,5-a]pyrimidin-5(4H)-one]
7 | > 25 | < 100 | < 100 | > 25 | < 10 | < 10 | CCn1cc(C(F)(F)F)nc1-c1ccc(Cn2c(=O)ccn3nc(-c4c(Cl)cnn4C(C)C)nc23)cc1F [Example 343, 2-(4-chloro-1-isopropyl-1H-pyrazol-5-yl)-4-(4-(1-ethyl-4-(trifluoromethyl)-1H-imidazol-2-yl)-3-fluorobenzyl)-[1,2,4]triazolo[1,5-a]pyrimidin-5(4H)-one]
8 | > 25 | < 100 | < 100 | > 25 | < 10 | < 10 | CCn1cc(C(F)(F)F)nc1-c1ccc(Cn2c(=O)ccn3nc(-c4c(OC(F)F)ncnc4C4CC4)nc23)cc1 [Example 345]
9 | > 25 | < 100 | < 100 | > 25 | < 10 | < 10 | COc1ncnc(C2CC2)c1-c1nc2n(Cc3ccc(-c4nc(C(F)(F)F)cn4C(C)C)c(F)c3OC)c(=O)ccn2n1 [Example 346, 2-(4-cyclopropyl-6-methoxypyrimidin-5-yl)-4-(3-fluoro-4-(1-isopropyl-4-(trifluoromethyl)-1H-imidazol-2-yl)-2-methoxybenzyl)-[1,2,4]triazolo[1,5-a]pyrimidin-5(4H)-one]
10 | > 25 | < 100 | < 100 | > 25 | ≥ 10 | ≥ 10 | CCn1cc(C(F)(F)F)nc1-c1ccc(CN2C(=O)C(C)Cn3nc(-c4c(OC)ncnc4C4CC4)nc32)cc1F (stereo not drawn) [Example 347, 2-(4-cyclopropyl-6-methoxypyrimidin-5-yl)-4-(4-(1-ethyl-4-(trifluoromethyl)-1H-imidazol-2-yl)-3-fluorobenzyl)-6-methyl-6,7-dihydro-[1,2,4]triazolo[1,5-α]pyrimidin-5(4H)-one]
11 | > 25 | < 100 | < 100 | > 25 | < 10 | < 10 | CCn1cc(C(F)(F)F)nc1-c1ccc(CN2C(=O)C(C)Cn3nc(-c4c(Cl)cnn4C(C)C)nc32)cc1F (stereo not drawn) [Example 350, 2-(4-chloro-1-isopropyl-1H-pyrazol-5-yl)-4-(4-(1-ethyl-4-(trifluoromethyl)-1H-imidazol-2-yl)-3-fluorobenzyl)-6-methyl-6,7-dihydro-[1,2,4]triazolo[1,5-a]pyrimidin-5(4H)-one]
12 | > 25 | < 100 | < 100 | > 25 | < 10 | < 10 | CCn1cc(C(F)(F)F)nc1-c1ccc(CN2C(=O)C(C)Cn3nc(-c4c(OC(F)F)ncnc4C4CC4)nc32)cc1F (stereo not drawn) [Example 351, 2-(4-cyclopropyl-6-(difluoromethoxy)pyrimidin-5-yl)-4-(4-(1-ethyl-4-(trifluoromethyl)-1H-imidazol-2-yl)-3-fluorobenzyl)-6-methyl-6,7-dihydro-[1,2,4]triazolo[1,5-a]pyrimidin-5(4H)-one]
13 | > 25 | < 100 | < 100 | < 25 | < 10 | < 10 | CCn1cc(C(F)(F)F)nc1-c1ccc(NC2c3cc(-c4c(Cl)cnn4C(C)C)nn3CCC2(C)C)cc1 (stereo not drawn) [Example 352, 2-(4-chloro-1-isopropyl-1H-pyrazol-5-yl)-N-(4-(1-ethyl-4-(trifluoromethyl)-1H-imidazol-2-yl)phenyl)-5,5-dimethyl-4,5,6,7-tetrahydropyrazolo[1,5-α]pyridin-4-amine]
14 | < 25 | < 100 | < 100 | < 25 | ≥ 10 | < 10 | CCn1cc(C(F)(F)F)nc1-c1ccc(CN2CC(N)Cn3nc(-c4c(Cl)cnn4C(C)C)cc32)cc1F (stereo not drawn) [Example 353, 2-(4-chloro-1-isopropyl-1H-pyrazol-5-yl)-4-(4-(1-ethyl-4-(trifluoromethyl)-1H-imidazol-2-yl)-3-fluorobenzyl)-4,5,6,7-tetrahydropyrazolo[1,5-α]pyrimidin-6-amine]
15 | < 25 | < 100 | 100 to 500 | < 25 | < 10 | < 10 | CCn1cc(C(F)(F)F)nc1-c1ccc(NC2CCCc3nn(-c4ccccc4C(C)C)cc32)cc1F (stereo not drawn) [Example 355, N-(4-(1-ethyl-4-(trifluoromethyl)-1H-imidazol-2-yl)-3-fluorophenyl)-2-(2-isopropylphenyl)-4,5,6,7-tetrahydro-2H-indazol-4-amine]
16 | < 25 | < 100 | < 100 | < 25 | < 10 | < 10 | CCn1cc(C(F)(F)F)nc1-c1ccc(NC2CCCCn3nc(-c4c(Cl)cnn4C(C)C)cc32)cc1 (stereo not drawn) [Example 357, 2-(4-chloro-1-isopropyl-1H-pyrazol-5-yl)-N-(4-(1-ethyl-4-(trifluoromethyl)-1H-imidazol-2-yl)phenyl)-5,6,7,8-tetrahydro-4H-pyrazolo[1,5-α]azepin-4-amine]
17 | > 25 | < 100 | < 100 | < 25 | < 10 | < 10 | CCn1cc(C(F)(F)F)nc1-c1ccc(OC2CCCCn3nc(-c4c(Cl)cnn4C(C)C)cc32)cc1 (stereo not drawn) [Example 358, 2-(4-chloro-1-isopropyl-1H-pyrazol-5-yl)-4-(4-(1-ethyl-4-(trifluoromethyl)-1H-imidazol-2-yl)phenoxy)-5,6,7,8-tetrahydro-4H-pyrazolo[1,5-α]azepine]
